Values of other authors, collected in patent publication US8044020B2, “Pharmaceutical compositions and methods for insulin treatment” (CPEX Pharmaceuticals, Inc., priority 2003, dated 2011).

Settings: beagles; previously determined (Hseih, 1993)

Which “effect on migration of insulin through the nasal mucosa” value does the source give for `O=C1CCCCCCCCCCCCCCO1` [Cyclopentadecanolide] here?
Its value is “facilitates the migration of insulin through the nasal mucosa”.
